As a reminder, the EC50 is the concentration giving half of the maximal effect. For orientation: AC50 means the concentration at which the activity in the assay is half-maximal.

This is an account of results in ChEMBL document CHEMBL1201862, “PubChem BioAssay data set” (2004).

Calls of active or inactive are those of the source.

The target of assay [1] is Beta-galactosidase (Escherichia coli, UniProt Q8VNN2). Kind of assay: PubChem AID 485352. In kind it is functional.
For assay [2], the target named is T1, Type-1 angiotensin II receptor (Homo sapiens, UniProt P30556).
T1 sequence (P30556 whole entry): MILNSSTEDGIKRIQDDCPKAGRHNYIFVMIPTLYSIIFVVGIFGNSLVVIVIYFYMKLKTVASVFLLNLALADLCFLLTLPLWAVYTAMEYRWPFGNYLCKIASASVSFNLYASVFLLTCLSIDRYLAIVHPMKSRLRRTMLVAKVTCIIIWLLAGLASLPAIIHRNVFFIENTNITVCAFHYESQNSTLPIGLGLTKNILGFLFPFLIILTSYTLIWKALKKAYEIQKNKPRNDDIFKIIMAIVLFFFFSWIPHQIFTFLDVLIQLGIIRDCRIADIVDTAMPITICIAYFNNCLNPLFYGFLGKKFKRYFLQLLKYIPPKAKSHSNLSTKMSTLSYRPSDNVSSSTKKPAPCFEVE
The experiment in a line: antagonism of angiotensin II type 1 receptor – cell-based, uHTS hits, selectivity assay for APJ receptor antagonist project, dose response (AID 463214).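 Note: antagonist potency against angiotensin II stimulated AT1 response.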 Format: functional.

Assay [3] deals with HEK293. Kind of assay: cells. Format: functional, cell-based. Conditions: Homo sapiens.
Assay [4] concerns the target T2, Nuclear receptor subfamily 0 group B member 1 (Homo sapiens, UniProt P51843).
T2 sequence (P51843 whole entry): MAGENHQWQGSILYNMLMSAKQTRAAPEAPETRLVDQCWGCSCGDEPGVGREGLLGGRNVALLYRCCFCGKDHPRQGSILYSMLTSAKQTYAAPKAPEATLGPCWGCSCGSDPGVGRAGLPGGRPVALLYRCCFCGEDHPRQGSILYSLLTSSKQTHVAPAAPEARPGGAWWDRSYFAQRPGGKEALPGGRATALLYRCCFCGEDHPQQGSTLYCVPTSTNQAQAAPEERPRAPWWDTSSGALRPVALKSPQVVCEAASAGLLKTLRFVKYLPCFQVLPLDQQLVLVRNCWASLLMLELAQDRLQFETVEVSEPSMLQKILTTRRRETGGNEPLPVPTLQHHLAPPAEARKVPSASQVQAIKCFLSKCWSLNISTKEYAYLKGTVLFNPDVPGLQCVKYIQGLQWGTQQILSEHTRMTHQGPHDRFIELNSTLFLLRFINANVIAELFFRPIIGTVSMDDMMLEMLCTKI
The experiment in a line: Luminescence-based cell-based high throughput dose response assay for inhibitors of the orphan nuclear receptor subfamily 0, group B, member 1 (DAX1; NR0B1). [Related pubchem assays (depositor defined):AID504766, AID504790]. Format: functional.

Assay [5] addresses T3, Short transient receptor potential channel 4 (Mus musculus, UniProt Q9QUQ5).
T3 sequence (Q9QUQ5 whole entry): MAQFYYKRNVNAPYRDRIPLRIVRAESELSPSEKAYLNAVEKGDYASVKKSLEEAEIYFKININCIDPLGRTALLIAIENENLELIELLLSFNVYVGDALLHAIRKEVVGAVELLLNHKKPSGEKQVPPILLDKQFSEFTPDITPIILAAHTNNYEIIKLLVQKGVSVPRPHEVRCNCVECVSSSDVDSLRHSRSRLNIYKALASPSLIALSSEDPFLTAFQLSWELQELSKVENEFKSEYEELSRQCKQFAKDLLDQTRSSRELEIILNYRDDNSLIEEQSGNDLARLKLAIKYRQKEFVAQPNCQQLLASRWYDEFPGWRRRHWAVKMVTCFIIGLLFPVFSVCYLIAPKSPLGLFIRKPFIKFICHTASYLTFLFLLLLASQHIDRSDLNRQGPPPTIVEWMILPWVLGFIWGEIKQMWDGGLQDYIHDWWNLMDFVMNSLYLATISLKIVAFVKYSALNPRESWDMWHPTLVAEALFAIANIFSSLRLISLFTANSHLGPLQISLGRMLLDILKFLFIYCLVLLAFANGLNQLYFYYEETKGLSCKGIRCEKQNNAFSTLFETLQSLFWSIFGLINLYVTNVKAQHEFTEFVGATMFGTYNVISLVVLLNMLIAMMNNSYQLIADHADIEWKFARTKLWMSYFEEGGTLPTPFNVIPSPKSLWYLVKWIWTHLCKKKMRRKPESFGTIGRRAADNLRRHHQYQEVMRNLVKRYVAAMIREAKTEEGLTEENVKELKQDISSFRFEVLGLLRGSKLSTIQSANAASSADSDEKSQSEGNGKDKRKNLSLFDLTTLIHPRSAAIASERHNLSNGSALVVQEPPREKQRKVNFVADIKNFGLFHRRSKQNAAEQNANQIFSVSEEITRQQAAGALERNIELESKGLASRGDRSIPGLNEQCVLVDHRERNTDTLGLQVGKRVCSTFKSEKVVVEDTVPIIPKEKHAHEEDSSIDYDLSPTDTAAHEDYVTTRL
Kind of assay: calcium entry via TRPC4 opening agents – cell-based, HEK293 TRPC4/mu-opioid, Fluo-4 calcium, dose response (AID 434937). Format: functional.

The target of assay [6] is Delta-type opioid receptor (Homo sapiens, UniProt P41143). The experiment in a line: Counterscreen for agonists of heterodimerization of the mu 1 (OPRM1) and delta 1 (OPRD1) opioid receptors: Luminescence-based cell-based high throughput dose response assay to identify agonists of OPRD1 homodimerization. [Related pubchem assays (depositor defined):AID504326, AID504355, AID504692, AID504904, AID504905]. Format: functional. Background: A counterscreen serves to expose hits that act by an unwanted route or on another target.
Delta-type opioid receptor, sequence (P41143 whole entry): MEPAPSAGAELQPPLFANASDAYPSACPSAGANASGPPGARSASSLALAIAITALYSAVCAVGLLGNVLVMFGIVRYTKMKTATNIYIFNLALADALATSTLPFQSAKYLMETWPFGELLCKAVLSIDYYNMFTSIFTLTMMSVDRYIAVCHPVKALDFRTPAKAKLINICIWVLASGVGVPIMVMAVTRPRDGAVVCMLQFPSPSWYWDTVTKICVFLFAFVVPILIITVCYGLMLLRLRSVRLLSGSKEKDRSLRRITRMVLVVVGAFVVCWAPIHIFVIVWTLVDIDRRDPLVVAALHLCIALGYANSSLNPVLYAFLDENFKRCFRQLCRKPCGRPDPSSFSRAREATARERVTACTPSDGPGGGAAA

For assay [7], the target named is Mu-type opioid receptor (Homo sapiens, UniProt P35372). Kind of assay: Counterscreen for agonists of heterodimerization of the mu 1 (OPRM1) and delta 1 (OPRD1) opioid receptors: Luminescence-based cell-based high throughput dose response assay to identify agonists of OPRM1 homodimerization. In kind it is functional.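 Note: U2OS cells expressing OPRM1 and beta-arrestin as split beta-galactosidase partners.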
Mu-type opioid receptor, sequence (P35372 whole entry): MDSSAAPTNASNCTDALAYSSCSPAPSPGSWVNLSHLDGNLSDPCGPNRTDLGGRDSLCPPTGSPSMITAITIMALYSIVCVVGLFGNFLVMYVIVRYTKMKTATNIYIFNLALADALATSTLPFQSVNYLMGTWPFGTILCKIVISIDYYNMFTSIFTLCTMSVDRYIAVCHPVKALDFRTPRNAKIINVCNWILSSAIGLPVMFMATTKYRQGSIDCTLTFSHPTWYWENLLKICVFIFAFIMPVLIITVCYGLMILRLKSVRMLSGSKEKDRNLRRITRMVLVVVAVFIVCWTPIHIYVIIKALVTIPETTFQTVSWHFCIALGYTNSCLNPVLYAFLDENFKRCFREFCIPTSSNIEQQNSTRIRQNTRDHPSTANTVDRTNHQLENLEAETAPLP
Assay [8] deals with 5-hydroxytryptamine receptor 5A (Homo sapiens, UniProt P47898). Kind of assay: Counterscreen for agonists of OPRM1-OPRD1 heterodimerization: luminescence-based cell-based high throughput dose response assay to identify agonists of 5-hydroxytryptamine (serotonin) 5A receptor (HTR5A). [Related pubchem assays (depositor defined):AID504326, AID504355, AID504692, AID504904, AID504905]. In kind it is functional.
5-hydroxytryptamine receptor 5A, sequence (P47898 whole entry): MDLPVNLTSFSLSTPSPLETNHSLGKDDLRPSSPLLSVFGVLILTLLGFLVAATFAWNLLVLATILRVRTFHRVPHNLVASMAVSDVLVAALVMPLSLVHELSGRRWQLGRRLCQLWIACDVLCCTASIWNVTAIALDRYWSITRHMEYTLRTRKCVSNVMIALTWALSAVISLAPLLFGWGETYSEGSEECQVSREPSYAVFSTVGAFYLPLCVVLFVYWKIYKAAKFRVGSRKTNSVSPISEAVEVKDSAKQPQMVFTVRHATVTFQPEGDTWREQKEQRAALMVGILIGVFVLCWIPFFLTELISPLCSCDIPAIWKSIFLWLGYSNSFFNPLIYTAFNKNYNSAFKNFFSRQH

A short description of assay [9]: viability of PTEN-deleted HCT116 cells – cell-based, HCT116 PTEN knockout, dose response (AID 1047).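 Note: HCT116 colon tumor cells with PTEN knocked out; cells exposed to compound for 60 hours before readout; potency for loss of cell viability measured by luminescence.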 In kind it is functional.
Assay [10] is described as follows: viability of HCT116 lacking mutant beta-catenin – cell-based, human colon tumor, dose response (AID 1045).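 Note: HCT116 colon tumor cells with beta catenin knocked out; cells exposed to compound for 60 hours.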 Format: functional.
The target of assay [11] is T4, Microphthalmia-associated transcription factor (Homo sapiens, UniProt O75030).
T4 sequence (O75030 whole entry): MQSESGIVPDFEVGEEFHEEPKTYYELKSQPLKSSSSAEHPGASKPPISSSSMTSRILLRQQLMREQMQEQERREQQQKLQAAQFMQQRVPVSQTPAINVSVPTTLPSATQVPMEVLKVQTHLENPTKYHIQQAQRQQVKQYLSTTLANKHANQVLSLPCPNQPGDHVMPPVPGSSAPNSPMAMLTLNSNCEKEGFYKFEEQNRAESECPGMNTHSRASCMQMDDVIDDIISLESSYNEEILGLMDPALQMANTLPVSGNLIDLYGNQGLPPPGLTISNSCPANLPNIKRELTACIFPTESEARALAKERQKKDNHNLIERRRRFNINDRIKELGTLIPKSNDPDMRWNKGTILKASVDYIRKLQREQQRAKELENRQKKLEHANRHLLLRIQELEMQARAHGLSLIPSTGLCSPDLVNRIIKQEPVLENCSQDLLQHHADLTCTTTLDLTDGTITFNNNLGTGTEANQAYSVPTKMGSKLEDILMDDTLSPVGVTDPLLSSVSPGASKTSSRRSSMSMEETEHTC
The experiment in a line: reducers of TRPM1 reporter luminescence, concentration series – cell-based, SK-MEL-5, cherry-picked, set 3, MITF inhibitor project, dose response (AID 493073).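 Note: SK-MEL-5 melanoma cells with luciferase driven by the MITF target TRPM1 promoter.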 In kind it is functional.

Assay [12] has as its system A-375. Kind of assay: proliferation inhibition in MITF-low A375 cells – cell-based, cherry-pick samples, set 2, counter-screen for MITF modulator project, dose response (AID 540335). Format: functional. The following applies: Homo sapiens.
Assay [13] has as its target Protein Wnt-3a (Mus musculus, UniProt P27467). The experiment in a line: antagonism of Wnt3a pathway luciferase reporter – Wnt-LIGHT cells, luminescence, selectivity assay for Gli-SUFU antagonist project, dose response (AID 651570).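 Note: Wnt-LIGHT reporter cells stimulated with conditioned medium from Wnt3a-producing cells.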 Format: functional. Conditions: read-out: IC50_Mean. In general terms: Reporter assays use an easily measured gene product as a stand-in for the process of interest.

Beta-galactosidase, sequence (Q8VNN2 whole entry): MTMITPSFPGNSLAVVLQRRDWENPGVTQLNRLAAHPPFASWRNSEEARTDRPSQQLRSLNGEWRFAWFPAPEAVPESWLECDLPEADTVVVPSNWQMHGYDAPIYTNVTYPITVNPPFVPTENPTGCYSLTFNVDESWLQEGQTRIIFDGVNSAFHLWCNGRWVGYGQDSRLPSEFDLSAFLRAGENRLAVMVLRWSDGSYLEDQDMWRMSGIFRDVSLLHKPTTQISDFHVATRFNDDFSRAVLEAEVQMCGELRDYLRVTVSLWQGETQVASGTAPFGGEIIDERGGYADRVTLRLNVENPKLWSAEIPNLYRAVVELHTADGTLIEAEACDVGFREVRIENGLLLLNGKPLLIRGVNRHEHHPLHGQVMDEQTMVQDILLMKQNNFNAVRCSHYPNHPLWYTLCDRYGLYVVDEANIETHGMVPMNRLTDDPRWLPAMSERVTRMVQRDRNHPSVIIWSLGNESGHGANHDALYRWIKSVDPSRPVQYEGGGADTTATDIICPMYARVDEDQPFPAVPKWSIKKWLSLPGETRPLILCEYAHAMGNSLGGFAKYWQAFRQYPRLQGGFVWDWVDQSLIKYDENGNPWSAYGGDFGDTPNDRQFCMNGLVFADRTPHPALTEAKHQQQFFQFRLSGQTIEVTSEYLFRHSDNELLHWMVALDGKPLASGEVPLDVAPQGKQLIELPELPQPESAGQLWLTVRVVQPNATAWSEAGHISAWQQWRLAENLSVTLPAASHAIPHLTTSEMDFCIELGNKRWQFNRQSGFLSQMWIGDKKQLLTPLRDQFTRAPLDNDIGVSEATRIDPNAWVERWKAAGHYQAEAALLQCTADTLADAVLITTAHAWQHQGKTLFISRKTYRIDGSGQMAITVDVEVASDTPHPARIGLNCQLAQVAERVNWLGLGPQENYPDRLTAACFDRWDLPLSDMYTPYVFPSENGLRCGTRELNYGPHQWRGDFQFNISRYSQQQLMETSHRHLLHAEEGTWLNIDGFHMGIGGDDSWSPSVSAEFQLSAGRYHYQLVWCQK
Protein Wnt-3a, sequence (P27467 whole entry): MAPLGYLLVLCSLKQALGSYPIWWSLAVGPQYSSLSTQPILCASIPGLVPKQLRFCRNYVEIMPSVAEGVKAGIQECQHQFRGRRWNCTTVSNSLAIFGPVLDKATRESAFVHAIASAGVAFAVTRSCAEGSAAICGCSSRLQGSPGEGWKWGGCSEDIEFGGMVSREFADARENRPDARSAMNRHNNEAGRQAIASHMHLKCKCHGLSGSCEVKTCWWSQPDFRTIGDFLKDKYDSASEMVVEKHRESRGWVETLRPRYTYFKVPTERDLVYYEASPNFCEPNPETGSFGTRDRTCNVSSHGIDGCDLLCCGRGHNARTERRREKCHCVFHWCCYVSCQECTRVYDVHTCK

On to `CC1CCCN(CC(=O)c2ccc(Cl)c(Cl)c2)C1` (stereo not drawn), for which the concentration giving a half-maximal response (EC50) in assay [1] is 30.8 µM (active). The IC50 in [2] is 4.76 µM (active).

`O=C(O)Cc1sc(Nc2ccccc2)nc1-c1cccs1`: the IC50 in assay [3] and in assay [4] was > 67.5 µM (inactive) throughout.

As for `COc1ccc(C(CNC(=O)C(Cc2ccccc2)NC(N)=O)N(C)C)cc1` (stereo not drawn), the EC50 was 0.473 µM (active) in assay [5], > 92.5 µM (inactive) in assay [6], > 92.5 µM (inactive) in assay [7] and > 92.5 µM (inactive) in [8].

`CCn1c(/C=C/Nc2ccccc2)[n+](CC)c2cc(Cl)c(Cl)cc21`: the concentration giving a half-maximal response (EC50) is 2.4 µM (active) in assay [9] and 1.68 µM (active) in assay [10]. The AC50 in assay [11] is 14.5 µM (active); in [12], 34.8 µM (active). Further, in [13], the IC50 is 7.29 µM (active).
